Assay results taken from PMC12345137 (mBio, 2025).
Read-outs that look alike come from different tables or passages of the source.

Experiments:
[1] = system: S. epidermidis (SE) agr-I; conditions: fluorescence, cited from earlier work
[2] = system: S. epidermidis (SE) agr-II; conditions: fluorescence, cited from earlier work
S. aureus (SA) agr-I = conditions: fluorescence, cited from earlier work
S. aureus (SA) agr-IV = conditions: fluorescence, cited from earlier work
S. aureus (SA) agr-II = conditions: fluorescence, cited from earlier work
S. aureus (SA) agr-III = conditions: fluorescence, cited from earlier work
[3] = system: S. epidermidis (SE) agr-III; conditions: fluorescence; ref (13); cited from earlier work
SA AgrC-III = SA AgrC-III (Staphylococcus aureus, UniProt O33590); conditions: 100 nM cognate AIP, ± SEM, determined previously, ref (1), cited from earlier work
SA AgrC-II = SA AgrC-II (Staphylococcus aureus, UniProt O33587); conditions: 100 nM cognate AIP, ± SEM, -b = no inhibition recorded at the highest AIP concentration tested, determined previously, ref (1), cited from earlier work; for IC50: read-out: IC50, SA AgrC-II, b-lactamase assay
SA AgrC-IV = SA AgrC-IV (Staphylococcus aureus, UniProt Q309Z2); conditions: ± SEM, determined previously, ref (1), cited from earlier work; for EC50: read-out: EC50, SA AgrC-IV, b-lactamase assay
S. lugdunensis agr-I = S. lugdunensis agr-I (Staphylococcus lugdunensis, UniProt Q8VSW5); test: cell-based; conditions: fluorescent reporter strain; peptides tested at 1000, 50, 2.5, 0.125 nM or in dose-response
Description: (§1) Peptides were evaluated for the ability to interfere with agr-mediated quorum sensing in S. aureus (AH1677, AH430, AH1747, and AH1872 for agr-I–IV, respectively) ([40]) using reporter strains expressing yellow fluorescent protein (YFP) upon agr activation. Interference with agr-mediated quorum sensing in S. epidermidis (AH3408, AH3623, and AH3409 for agr-I–III, respectively) ([45]), and S. lugdunensis (AH4031 for agr-I) ([37]) was evaluated using reporter strains expressing superfolder green fluorescent protein (sGFP) upon agr activation. Overnight cultures of the reporter strains were grown in TSB medium containing chloramphenicol (CAM, 10 μg/mL for S. aureus) or erythromycin (ERM, 10 μg/mL of S. epidermidis and S. lugdunensis) and diluted 1:100 in fresh TSB medium containing the same antibiotic. Assays were performed in sterile black 96-well plates with a clear bottom. […] DMSO stock solutions of peptides (1 mM) were diluted in TSB media and added (15 μL) in technical triplicate to the 96-well plate, followed by diluted bacterial overnight cultures (135 μL). Control wells for 100% agr activity were wells replacing the peptide solution with TSB medium (15 μL). […] Wells containing 150 μL TSB medium were used to measure background fluorescence. The 96-well plates were incubated in a humidified incubator at 37°C shaking at 1,000 rpm for 22–24 h and fluorescence (for GFP: excitation 479 nm, emission 520 nm; for YFP: excitation 500 nm, emission 541 nm; automatic gain), and OD600 values were subsequently measured using a plate reader. Background fluorescence was subtracted from all wells and further normalized to the corresponding OD600 value of the respective wells. The average fluorescence of control wells was used as a relative measure for 100% activation of the agr-circuit, and bar graphs were generated using GraphPad Prism 10.4 software. All assays were performed in at least a biological duplicate.
(§2) Overnight cultures of the reporter strains were grown in TSB medium containing chloramphenicol (CAM, 10 μg/mL for S. aureus) or erythromycin (ERM, 10 μg/mL of S. epidermidis and S. lugdunensis) and diluted 1:100 in fresh TSB medium containing the same antibiotic. Assays were performed in sterile black 96-well plates with clear bottoms. Peptide solutions (15 μL) in 1:5 serial dilutions from DMSO stock solutions (1 mM) in TSB medium were added to the 96-well plate in technical duplicate followed by diluted bacterial overnight cultures (135 μL). Control wells for 100% agr activity were wells replacing the peptide solution with TSB medium (15 μL). Wells containing 150 μL TSB medium were used to measure background fluorescence. The 96-well plates were incubated in a humidified incubator at 37°C shaking at 1,000 rpm for 22–24 h and fluorescence (for GFP: excitation 479 nm, emission 520 nm; for YFP: excitation 500 nm, emission 541 nm; automatic gain), and OD600 values were subsequently measured using a plate reader. Background fluorescence was subtracted from all wells and further normalized to the corresponding OD600 value of the respective wells. The average fluorescence of control wells was used as a relative measure for 100% activation of the agr-circuit. Relative agr activity was plotted to obtain IC50 values by non-linear regression with variable slope using GraphPad Prism 10.4 software. All assays were performed in biological triplicate.

S. epidermidis agr-III = S. epidermidis agr-III (Staphylococcus epidermidis, UniProt Q8VSX2); test: cell-based; format: cell-based; conditions: fluorescent reporter strain; peptides tested at 1000, 50, 2.5, 0.125 nM or in dose-response
Description: as §1, §2

S. aureus agr-IV = S. aureus agr-IV (Staphylococcus aureus, UniProt Q309Z2); test: cell-based; format: cell-based; conditions: fluorescent reporter strain; peptides tested at 1000, 50, 2.5, 0.125 nM or in dose-response
Description: as §1, §2

[4] = -b = no inhibition recorded at the highest AIP concentration tested, read-out: IC50, SA AgrC-III, b-lactamase assay
[5] = 100 nM cognate AIP, -b = no inhibition recorded at the highest AIP concentration tested
[6] = -b = no inhibition recorded at the highest AIP concentration tested
[7] = only partial inhibition observed, read-out: IC50, SA AgrC-III, b-lactamase assay, only partial inhibition observed (footnote a)

Substance: S. warneri AIP-II [compound 17]
- IC50 ([1]; ref (14)): 12 nM
- IC50 ([2]; ref (14)): 4 nM
- IC50 (S. aureus (SA) agr-I; ref (14)): 2 nM
- IC50 (S. aureus (SA) agr-IV; ref (14)): 2 nM
- IC50 (S. aureus (SA) agr-II; ref (14)): 30 nM
- IC50 (S. aureus (SA) agr-III; ref (14)): 2 nM

Substance: S. hominis AIP-IV [compound 13]
- IC50 ([1]; ref (13)): 237 nM
- IC50 ([2]; ref (13)): 93 nM
- IC50 (S. aureus (SA) agr-I; ref (13)): 128 nM
- IC50 (S. aureus (SA) agr-II; ref (13)): 140 nM
- IC50 (S. aureus (SA) agr-III; ref (13)): 37 nM
- IC50 [3]: 28 nM

Substance: S. warneri AIP-I [compound 16]
- IC50 ([1]; ref (14)): 3 nM
- IC50 ([2]; ref (14)): 19 nM
- IC50 (S. aureus (SA) agr-I; ref (14)): 10 nM
- IC50 (S. aureus (SA) agr-IV; ref (14)): 146 nM
- IC50 (S. aureus (SA) agr-II; ref (14)): 4 nM
- IC50 (SA AgrC-III; [4]): 460 ± 59 nM
- IC50 (S. aureus (SA) agr-III; ref (14)): 13 nM
- IC50 (SA AgrC-II): 1000 ± 105 nM
- IC50 (SA AgrC-IV; 100 nM cognate AIP, -b = no inhibition recorded at the highest AIP concentration tested, read-out: IC50, SA AgrC-IV, b-lactamase assay): > 1000 nM

Substance: S. vitulinus AIP-I [compound 35]
- IC50 (SA AgrC-III; [4]): 690 ± 46 nM
- IC50 (SA AgrC-II): 800 ± 116 nM
- IC50, SA AgrC-IV, b-lactamase assay (SA AgrC-IV; [5]): -b

Substance: S. simulans AIP-III P4A [compound 47]
- QS interaction in words (inhibition / activation), S. lugdunensis agr-I (S. lugdunensis agr-I): increase in inhibition

Substance: S. simulans AIP-III W6A [compound 48]
- QS interaction in words (inhibition / activation), S. epidermidis agr-III (S. epidermidis agr-III): no effect on S. epidermidis agr-III activation

Substance: S. Simulans AIP-II/III N-Me2 [compound 56]
- QS interaction in words (inhibition / activation), S. lugdunensis agr-I (S. lugdunensis agr-I): remained highly potent

Substance: S. hominis AIP-II [compound 11]
- IC50 ([1]; ref (13)): 20 nM
- IC50 ([2]; ref (13)): 19 nM
- IC50 (S. aureus (SA) agr-I; ref (13)): 15 nM
- IC50 (S. aureus (SA) agr-IV; ref (13)): 1130 nM
- IC50 (S. aureus (SA) agr-II; ref (13)): 2110 nM
- IC50 (S. aureus (SA) agr-III; ref (13)): 3 nM
- IC50 [3]: 62 nM

Substance: S. simulans AIP-III K1A [compound 45]
- QS interaction in words (inhibition / activation), S. epidermidis agr-III (S. epidermidis agr-III): lost the ability to activate

Substance: S. simulans AIP-II/III Y3A/N3A [compound 38]
- QS interaction in words (inhibition / activation), S. epidermidis agr-III (S. epidermidis agr-III): inhibitor

Substance: S. simulans AIP-III 8-mer [compound 52]
- QS interaction in words (inhibition / activation), S. aureus agr-IV (S. aureus agr-IV): increased inhibition

Substance: S. lugdunensis AIP-II [compound 9]
- IC50, SA AgrC-III, b-lactamase assay (SA AgrC-III; [6]): -b
- IC50, SA AgrC-II, b-lactamase assay (SA AgrC-II): -b
- IC50, SA AgrC-IV, b-lactamase assay (SA AgrC-IV; [5]): -b

Substance: S. hominis AIP-V [compound 14]
- IC50 ([1]; ref (13)): 10 nM
- IC50 ([2]; ref (13)): 22 nM
- IC50 (S. aureus (SA) agr-I; ref (13)): 43 nM
- IC50 (S. aureus (SA) agr-IV; ref (13)): 3810 nM
- IC50 (S. aureus (SA) agr-II; ref (13)): 59 nM
- IC50 (S. aureus (SA) agr-III; ref (13)): 4 nM
- IC50 [3]: 2 nM

Substance: S. schleiferi AIP-I [compound 30]
- IC50 (SA AgrC-III; [7]): 80 ± 16 nM
- IC50 (SA AgrC-II): 86 ± 6 nM
- EC50 (SA AgrC-IV): 31 ± 6 nM

Substance: S. saprophyticus AIP-I [compound 19]
- IC50, SA AgrC-III, b-lactamase assay (SA AgrC-III; [6]): -b
- IC50, SA AgrC-IV, b-lactamase assay (SA AgrC-IV; [5]): -b

Substance: S. haemolyticus AIP-I [compound 15]
- IC50 (SA AgrC-III; [4]): 340 ± 91 nM
- IC50, SA AgrC-II, b-lactamase assay (SA AgrC-II): -b

Substance: S. hominis AIP-III [compound 12]
- IC50 ([1]; ref (13)): 4 nM
- IC50 ([2]; ref (13)): 3 nM
- IC50 (S. aureus (SA) agr-I; ref (13)): 11 nM
- QS interaction in words (inhibition / activation), S. aureus agr-IV (S. aureus agr-IV): activated
- IC50 (S. aureus (SA) agr-II; ref (13)): 4 nM
- IC50 (SA AgrC-III; [7]): 220 ± 46 nM
- IC50 (S. aureus (SA) agr-III; ref (13)): 6 nM
- IC50 (SA AgrC-II): 580 ± 61 nM
- EC50 (SA AgrC-IV): 54 ± 5 nM
- IC50 [3]: 3 nM

Substance: S. simulans AIP-III Y2A [compound 46]
- QS interaction in words (inhibition / activation), S. epidermidis agr-III (S. epidermidis agr-III): lost the ability to activate

Substance: S. simulans AIP-III G7A [compound 49]
- QS interaction in words (inhibition / activation), S. epidermidis agr-III (S. epidermidis agr-III): loss of activation
